Measured values reported in EP4722212A1, “NOVEL COMPOUND FOR INHIBITING PROTEIN KINASES AND PHARMACEUTICAL COMPOSITION COMPRISING SAME” (Magicbullettherapeutics Co., Ltd., priority 2023, dated 2024).
Read-outs that look alike come from different tables or passages of the source.

Experiments:
Assay in all cases: Kinase panel
Type in all cases: biochemical
AURORA C = AURORA C (Homo sapiens, UniProt Q9UQB9); conditions: read-out: residual enzyme activity
Summary of the method: (§1)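 Single-point screen at 1 µM in a biochemical kinase panel; readout is % residual enzyme activity; hit cut-off ≤40% remaining (≥60% inhibited).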

BRSK2 = BRSK2 (Homo sapiens, UniProt Q8IWQ3); conditions: BRSK2, 1 µM; read-out: residual enzyme activity
Summary of the method: as §1

CAMK1D = CAMK1D (Homo sapiens, UniProt Q8IU85); conditions: read-out: residual enzyme activity
Chain of CAMK1D (Q8IU85 whole entry, species assumed): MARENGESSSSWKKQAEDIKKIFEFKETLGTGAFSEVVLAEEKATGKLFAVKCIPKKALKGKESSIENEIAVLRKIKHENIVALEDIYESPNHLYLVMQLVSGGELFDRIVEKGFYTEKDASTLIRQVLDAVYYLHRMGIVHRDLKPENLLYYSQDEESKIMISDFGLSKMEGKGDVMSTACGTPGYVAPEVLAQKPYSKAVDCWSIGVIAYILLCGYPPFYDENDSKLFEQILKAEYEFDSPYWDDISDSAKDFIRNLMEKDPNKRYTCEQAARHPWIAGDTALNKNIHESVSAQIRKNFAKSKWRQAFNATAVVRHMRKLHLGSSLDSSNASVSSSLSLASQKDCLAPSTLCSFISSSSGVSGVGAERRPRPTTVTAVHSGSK
Summary of the method: as §1

CAMKIG = CAMKIG (Homo sapiens, UniProt Q96NX5); conditions: read-out: residual enzyme activity
Summary of the method: as §1

CDK2/CYCLIN O = CDK2/CYCLIN O (Homo sapiens, UniProt P24941); conditions: read-out: residual enzyme activity
Summary of the method: as §1

CDK4/CYCLIN D3 = CDK4/CYCLIN D3 (Homo sapiens, UniProt P11802); conditions: CDK4/cyclin D3, 1 µM; read-out: residual enzyme activity
Summary of the method: as §1

CDK9/CYCLIN K = CDK9/CYCLIN K (Homo sapiens, UniProt P50750); conditions: read-out: residual enzyme activity
Summary of the method: as §1

CSK = CSK (Homo sapiens, UniProt P41240); conditions: read-out: residual enzyme activity
Summary of the method: as §1

DCAMKL2 = DCAMKL2 (Homo sapiens, UniProt Q8N568); conditions: DCAMKL2, 1 µM; read-out: residual enzyme activity
Chain of DCAMKL2 (Q8N568 whole entry, species assumed): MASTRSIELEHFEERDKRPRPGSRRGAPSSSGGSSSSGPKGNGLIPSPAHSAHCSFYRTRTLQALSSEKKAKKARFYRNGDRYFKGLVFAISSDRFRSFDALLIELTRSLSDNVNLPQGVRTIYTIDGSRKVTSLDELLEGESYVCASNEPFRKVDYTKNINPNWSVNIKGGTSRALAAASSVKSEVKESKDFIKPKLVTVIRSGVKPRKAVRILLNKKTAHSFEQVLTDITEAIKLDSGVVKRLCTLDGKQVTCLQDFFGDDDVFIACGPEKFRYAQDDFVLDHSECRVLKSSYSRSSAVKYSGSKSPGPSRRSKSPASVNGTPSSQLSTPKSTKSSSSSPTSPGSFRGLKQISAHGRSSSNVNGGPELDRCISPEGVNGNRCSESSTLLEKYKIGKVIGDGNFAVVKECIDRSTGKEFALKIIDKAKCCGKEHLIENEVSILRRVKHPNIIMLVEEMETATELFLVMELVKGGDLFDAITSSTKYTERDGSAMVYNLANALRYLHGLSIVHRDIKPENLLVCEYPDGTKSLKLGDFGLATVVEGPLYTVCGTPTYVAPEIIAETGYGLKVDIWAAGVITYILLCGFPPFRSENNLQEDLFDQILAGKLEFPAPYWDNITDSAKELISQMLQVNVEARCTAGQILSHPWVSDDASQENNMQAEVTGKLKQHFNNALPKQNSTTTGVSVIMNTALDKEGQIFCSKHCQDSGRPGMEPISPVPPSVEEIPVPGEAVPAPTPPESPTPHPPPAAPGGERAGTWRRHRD
Summary of the method: as §1

DDR1 = DDR1 (Homo sapiens, UniProt Q08345); conditions: DDR1, 1 µM; read-out: residual enzyme activity
Summary of the method: as §1

DMPK = DMPK (Homo sapiens, UniProt Q09013); conditions: read-out: residual enzyme activity
Summary of the method: as §1

DYRK4 = DYRK4 (Homo sapiens, UniProt Q9NR20); conditions: DYRK4, 1 µM; read-out: residual enzyme activity
Chain of DYRK4 (Q9NR20 whole entry, species assumed): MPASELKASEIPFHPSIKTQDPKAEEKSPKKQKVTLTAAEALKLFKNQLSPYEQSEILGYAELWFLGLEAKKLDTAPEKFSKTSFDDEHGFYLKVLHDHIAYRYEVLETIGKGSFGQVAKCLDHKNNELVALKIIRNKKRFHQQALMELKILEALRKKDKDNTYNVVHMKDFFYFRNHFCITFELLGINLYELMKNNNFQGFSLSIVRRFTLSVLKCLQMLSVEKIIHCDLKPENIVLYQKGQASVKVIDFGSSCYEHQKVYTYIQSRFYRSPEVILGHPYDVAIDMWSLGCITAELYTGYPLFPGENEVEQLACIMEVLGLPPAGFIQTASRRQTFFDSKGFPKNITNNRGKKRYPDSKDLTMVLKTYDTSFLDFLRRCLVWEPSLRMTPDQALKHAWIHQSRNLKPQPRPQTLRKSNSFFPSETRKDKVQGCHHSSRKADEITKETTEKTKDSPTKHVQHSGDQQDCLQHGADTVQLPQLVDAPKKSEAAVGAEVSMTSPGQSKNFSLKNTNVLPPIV
Summary of the method: as §1

ERK5/MAPK7 = ERK5/MAPK7 (Homo sapiens, UniProt Q13164); conditions: ERK5/MAPK7, 1 µM; read-out: residual enzyme activity
Summary of the method: as §1

FGFR4 = FGFR4 (Homo sapiens, UniProt P22455); conditions: FGFR4, 1 µM; read-out: residual enzyme activity
Summary of the method: as §1

JNK1 = JNK1 (Homo sapiens, UniProt P45983); conditions: JNK1, 1 µM; read-out: residual enzyme activity
Chain of JNK1 (P45983 whole entry, species assumed): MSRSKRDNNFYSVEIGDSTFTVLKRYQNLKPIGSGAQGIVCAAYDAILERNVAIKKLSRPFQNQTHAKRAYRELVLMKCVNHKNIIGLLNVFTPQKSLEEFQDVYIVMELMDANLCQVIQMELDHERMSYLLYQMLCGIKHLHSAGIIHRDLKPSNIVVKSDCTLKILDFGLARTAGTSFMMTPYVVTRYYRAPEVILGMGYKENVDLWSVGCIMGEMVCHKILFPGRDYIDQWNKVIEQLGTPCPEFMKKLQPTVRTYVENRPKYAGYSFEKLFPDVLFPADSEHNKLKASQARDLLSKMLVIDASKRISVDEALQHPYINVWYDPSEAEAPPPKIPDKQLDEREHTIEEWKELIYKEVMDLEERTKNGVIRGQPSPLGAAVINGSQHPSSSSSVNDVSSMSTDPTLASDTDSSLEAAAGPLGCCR
Summary of the method: as §1

LCK2/ICK = LCK2/ICK (Homo sapiens, UniProt Q9UPZ9); conditions: read-out: residual enzyme activity
Summary of the method: as §1

MELK = MELK (Homo sapiens, UniProt Q14680); conditions: read-out: residual enzyme activity
Chain of MELK (Q14680 whole entry, species assumed): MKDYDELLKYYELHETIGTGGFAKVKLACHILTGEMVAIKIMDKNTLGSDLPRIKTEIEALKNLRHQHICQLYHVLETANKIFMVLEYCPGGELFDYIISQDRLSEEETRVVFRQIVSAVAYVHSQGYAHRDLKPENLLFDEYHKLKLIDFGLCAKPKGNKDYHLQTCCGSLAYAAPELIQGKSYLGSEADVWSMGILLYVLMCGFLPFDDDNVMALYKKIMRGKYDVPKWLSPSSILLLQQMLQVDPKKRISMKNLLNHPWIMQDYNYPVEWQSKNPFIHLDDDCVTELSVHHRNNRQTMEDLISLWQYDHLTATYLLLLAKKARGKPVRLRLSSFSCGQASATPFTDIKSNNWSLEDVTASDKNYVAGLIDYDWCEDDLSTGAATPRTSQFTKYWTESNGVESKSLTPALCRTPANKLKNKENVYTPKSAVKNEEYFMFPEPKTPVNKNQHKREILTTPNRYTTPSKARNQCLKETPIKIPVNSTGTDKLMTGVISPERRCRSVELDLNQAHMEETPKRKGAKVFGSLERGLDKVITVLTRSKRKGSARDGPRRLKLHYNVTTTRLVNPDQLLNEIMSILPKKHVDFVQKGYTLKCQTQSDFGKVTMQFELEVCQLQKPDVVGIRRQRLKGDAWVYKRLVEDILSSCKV
Summary of the method: as §1

MLCK2/MYLK2 = MLCK2/MYLK2 (Homo sapiens, UniProt Q9H1R3); conditions: MLCK2/MYLK2, 1 µM; read-out: residual enzyme activity
Summary of the method: as §1

MLK4 = MLK4 (Homo sapiens, UniProt Q5TCX8); conditions: MLK4, 1 µM; read-out: residual enzyme activity
Summary of the method: as §1

NEK2 = NEK2 (Homo sapiens, UniProt P51955); conditions: NEK2, 1 µM; read-out: residual enzyme activity
Chain of NEK2 (P51955 whole entry, species assumed): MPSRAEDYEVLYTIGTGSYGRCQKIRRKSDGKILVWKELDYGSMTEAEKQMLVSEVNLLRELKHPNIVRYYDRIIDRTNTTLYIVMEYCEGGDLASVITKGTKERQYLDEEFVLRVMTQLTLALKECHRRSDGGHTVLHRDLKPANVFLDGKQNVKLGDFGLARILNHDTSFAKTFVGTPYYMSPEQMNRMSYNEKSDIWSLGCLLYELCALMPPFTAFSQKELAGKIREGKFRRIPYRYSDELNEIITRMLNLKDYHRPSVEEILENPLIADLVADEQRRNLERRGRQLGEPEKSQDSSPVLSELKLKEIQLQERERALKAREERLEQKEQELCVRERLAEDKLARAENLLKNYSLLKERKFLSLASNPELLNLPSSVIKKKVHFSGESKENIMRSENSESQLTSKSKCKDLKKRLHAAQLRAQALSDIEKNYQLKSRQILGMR
Summary of the method: as §1

NEK9 = NEK9 (Homo sapiens, UniProt Q8TD19); conditions: NEK9, 1 µM; read-out: residual enzyme activity
Summary of the method: as §1

NLK = NLK (Homo sapiens, UniProt Q9UBE8); conditions: read-out: residual enzyme activity
Summary of the method: as §1

P38A/MAPK14 = P38A/MAPK14 (Homo sapiens, UniProt Q16539); conditions: read-out: residual enzyme activity
Summary of the method: as §1

P38G = P38G (Homo sapiens, UniProt P53778); conditions: read-out: residual enzyme activity
Summary of the method: as §1

PKACG = PKACG (Homo sapiens, UniProt P22612); conditions: read-out: residual enzyme activity
Summary of the method: as §1

PKCMU/PRKD1 = PKCMU/PRKD1 (Homo sapiens, UniProt Q15139); conditions: PKCmu/PRKD1, 1 µM; read-out: residual enzyme activity
Chain of PKCMU/PRKD1 (Q15139 whole entry): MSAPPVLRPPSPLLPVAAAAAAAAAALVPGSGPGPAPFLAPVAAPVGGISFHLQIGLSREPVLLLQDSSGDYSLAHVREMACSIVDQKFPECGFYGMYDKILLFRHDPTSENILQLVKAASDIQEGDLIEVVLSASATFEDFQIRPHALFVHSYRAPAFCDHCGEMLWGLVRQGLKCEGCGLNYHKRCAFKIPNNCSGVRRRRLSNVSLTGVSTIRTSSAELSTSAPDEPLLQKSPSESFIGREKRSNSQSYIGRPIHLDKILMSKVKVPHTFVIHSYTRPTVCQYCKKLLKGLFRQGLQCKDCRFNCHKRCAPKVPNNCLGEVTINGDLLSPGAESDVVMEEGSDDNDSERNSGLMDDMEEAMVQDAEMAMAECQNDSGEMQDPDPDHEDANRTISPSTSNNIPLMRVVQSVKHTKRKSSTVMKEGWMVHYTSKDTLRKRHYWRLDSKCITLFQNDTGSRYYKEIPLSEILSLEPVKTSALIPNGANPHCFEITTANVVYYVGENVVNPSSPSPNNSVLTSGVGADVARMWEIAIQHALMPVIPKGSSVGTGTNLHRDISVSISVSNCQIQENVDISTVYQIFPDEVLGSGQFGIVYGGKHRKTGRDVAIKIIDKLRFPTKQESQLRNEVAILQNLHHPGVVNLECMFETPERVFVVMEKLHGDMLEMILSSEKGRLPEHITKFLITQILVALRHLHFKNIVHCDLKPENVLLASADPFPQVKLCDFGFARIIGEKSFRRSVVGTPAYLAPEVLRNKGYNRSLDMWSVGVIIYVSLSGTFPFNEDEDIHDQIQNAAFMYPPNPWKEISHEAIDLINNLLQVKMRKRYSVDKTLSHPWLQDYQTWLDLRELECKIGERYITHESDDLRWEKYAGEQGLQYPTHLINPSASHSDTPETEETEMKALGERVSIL
Summary of the method: as §1

PKCTHETA = PKCTHETA (Homo sapiens, UniProt Q04759); conditions: read-out: residual enzyme activity
Chain of PKCTHETA (Q04759 whole entry): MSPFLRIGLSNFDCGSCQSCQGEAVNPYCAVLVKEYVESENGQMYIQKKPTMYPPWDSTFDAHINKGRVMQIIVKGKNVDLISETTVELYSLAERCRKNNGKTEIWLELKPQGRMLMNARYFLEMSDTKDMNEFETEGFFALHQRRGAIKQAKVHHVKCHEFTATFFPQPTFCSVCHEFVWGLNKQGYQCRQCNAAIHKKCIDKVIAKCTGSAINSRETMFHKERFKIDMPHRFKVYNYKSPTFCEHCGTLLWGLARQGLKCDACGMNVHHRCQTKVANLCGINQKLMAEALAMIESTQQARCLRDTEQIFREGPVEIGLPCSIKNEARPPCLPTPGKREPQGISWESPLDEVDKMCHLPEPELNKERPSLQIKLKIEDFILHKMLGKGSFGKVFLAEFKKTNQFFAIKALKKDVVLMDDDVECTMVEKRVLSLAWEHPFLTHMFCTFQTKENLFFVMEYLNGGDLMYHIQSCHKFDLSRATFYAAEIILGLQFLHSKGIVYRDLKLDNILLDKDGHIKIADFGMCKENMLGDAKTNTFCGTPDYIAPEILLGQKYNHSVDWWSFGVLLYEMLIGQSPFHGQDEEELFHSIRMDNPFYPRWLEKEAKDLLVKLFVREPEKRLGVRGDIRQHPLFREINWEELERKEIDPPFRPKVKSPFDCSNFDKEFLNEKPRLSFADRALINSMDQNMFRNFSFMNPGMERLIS
Summary of the method: as §1

PKN2/PRK2 = PKN2/PRK2 (Homo sapiens, UniProt Q16513); conditions: PKN2/PRK2, 1 µM; read-out: residual enzyme activity
Summary of the method: as §1

ROCK1 = ROCK1 (Homo sapiens, UniProt Q13464); conditions: ROCK1, 1 µM; read-out: residual enzyme activity
Summary of the method: as §1

SGK3/SGKL = SGK3/SGKL (Homo sapiens, UniProt Q96BR1); conditions: read-out: residual enzyme activity
Summary of the method: as §1

STK39/STLK3 = STK39/STLK3 (Homo sapiens, UniProt Q9UEW8); conditions: STK39/STLK3, 1 µM; read-out: residual enzyme activity
Summary of the method: as §1

TAOK2/TAO1 = TAOK2/TAO1 (Homo sapiens, UniProt Q9UL54); conditions: TAOK2/TAO1, 1 µM; read-out: residual enzyme activity
Summary of the method: as §1

TYK2 = TYK2 (Homo sapiens, UniProt P29597); conditions: TYK2, 1 µM; read-out: residual enzyme activity
Summary of the method: as §1

ZAK/MLTK = ZAK/MLTK (Homo sapiens, UniProt Q9NYL2); conditions: read-out: residual enzyme activity
Summary of the method: as §1

Structure (SMILES) | remaining activity at 1 µM (AURORA C) [%] | remaining activity at 1 µM (BRSK2) [%] | remaining activity at 1 µM (CDK2/CYCLIN O) [%] | remaining activity at 1 µM (CDK4/CYCLIN D3) [%] | remaining activity at 1 µM (CDK9/CYCLIN K) [%] | remaining activity at 1 µM (CSK) [%] | remaining activity at 1 µM (DCAMKL2) [%] | remaining activity at 1 µM (DDR1) [%] | remaining activity at 1 µM (DMPK) [%] | remaining activity at 1 µM (DYRK4) [%] | remaining activity at 1 µM (ERK5/MAPK7) [%] | remaining activity at 1 µM (FGFR4) [%] | remaining activity at 1 µM (JNK1) [%] | remaining activity at 1 µM (LCK2/ICK) [%] | remaining activity at 1 µM (MELK) [%] | remaining activity at 1 µM (MLCK2/MYLK2) [%] | remaining activity at 1 µM (MLK4) [%] | remaining activity at 1 µM (NEK2) [%] | remaining activity at 1 µM (NEK9) [%] | remaining activity at 1 µM (NLK) [%] | also measured
Cc1cn(-c2cc(C(=O)Nc3ccc(C)c(N4Cc5cnc(NC6CC6)nc5C5(CC5)C4=O)c3)cc(C(F)(F)F)c2)cn1 [Compound 8, N-(3-(2'-(cyclopropylamino)-7'-oxo-5'H-spiro[cyclopropane-1,8'-pyrido[4,3-d]pyrimidine]-6'(7'H)-yl)-4-methylphenyl)-3-(4-methyl-1H-imidazol-1-yl)-5-(trifluoromethyl)benzamide] | > 40 | > 40 | > 40 | > 40 | > 40 | ≤ 40 | > 40 | ≤ 40 | > 40 | > 40 | > 40 | ≤ 40 | > 40 | > 40 | > 40 | ≤ 40 | > 40 | > 40 | > 40 | > 40 | remaining activity at 1 µM (CAMK1D; CAMK1D): > 40%; remaining activity at 1 µM (CAMKIG; CAMKIG): > 40%; remaining activity at 1 µM (P38A/MAPK14; P38A/MAPK14, 1 µM): ≤ 40%; remaining activity at 1 µM (P38G; P38G): > 40%; remaining activity at 1 µM (PKACG): ≤ 40%; remaining activity at 1 µM (PKCMU/PRKD1): > 40%; remaining activity at 1 µM (PKCTHETA): > 40%; remaining activity at 1 µM (PKN2/PRK2): > 40%; remaining activity at 1 µM (ROCK1): > 40%; remaining activity at 1 µM (SGK3/SGKL): > 40%; remaining activity at 1 µM (STK39/STLK3): > 40%; remaining activity at 1 µM (TAOK2/TAO1): ≤ 40%; remaining activity at 1 µM (TYK2): ≤ 40%; remaining activity at 1 µM (ZAK/MLTK): ≤ 40%
Cc1ccc(Nc2ncc3c(n2)C2(CC2)C(=O)N(c2cc(NC(=O)c4cccc(C(F)(F)F)c4)ccc2C)C3)cn1 [Compound 51, N-(4-methyl-3-(2'-((6-methylpyridin-3-yl)amino)-7'-oxo-5'H-spiro[cyclopropane-1,8'-pyrido[4,3-d]pyrimidine]-6'(7'H)-yl)phenyl)-3-(trifluoromethyl)benzamide] | > 40 | > 40 | > 40 | > 40 | > 40 | ≤ 40 | > 40 | ≤ 40 | > 40 | > 40 | > 40 | ≤ 40 | ≤ 40 | > 40 | > 40 | ≤ 40 | > 40 | > 40 | > 40 | > 40 | remaining activity at 1 µM (CAMK1D; CAMK1d): > 40%; remaining activity at 1 µM (CAMKIG; CAMK1g): > 40%; remaining activity at 1 µM (P38A/MAPK14; P38a/MAPK14, 1 µM): ≤ 40%; remaining activity at 1 µM (P38G; P38g): > 40%; remaining activity at 1 µM (PKACG): ≤ 40%; remaining activity at 1 µM (PKCMU/PRKD1): > 40%; remaining activity at 1 µM (PKCTHETA): > 40%; remaining activity at 1 µM (PKN2/PRK2): > 40%; remaining activity at 1 µM (ROCK1): > 40%; remaining activity at 1 µM (SGK3/SGKL): > 40%; remaining activity at 1 µM (STK39/STLK3): > 40%; remaining activity at 1 µM (TAOK2/TAO1): ≤ 40%; remaining activity at 1 µM (TYK2): ≤ 40%; remaining activity at 1 µM (ZAK/MLTK): ≤ 40%
